As usually defined, the logP is a log measure of how a compound divides between an organic and an aqueous phase. A higher logP goes with higher lipophilicity. For orientation: pKa means the pH at which an ionisable group is half protonated. By chromatographic logD is commonly meant a lipophilicity value derived from retention on a column.

Here are results for eight compounds from publication PMC5843698, “Use of QSPR Modeling to Characterize In Vitro Binding of Drugs to a Gut-Restricted Polymer” (Pharmaceutical Research, 2018).

Entries after “also recorded” stand apart in the source; their conditions may differ. Structures can show the parent of a compound that is named as a salt.

Data set [1] can be described thus: In vitro binding assay: free test drug recovered after 3 h incubation with and without patiromer in SGF, acetate buffer or SIF. To be noted: for SGF / SIF / AB: QSPR input data; for SGF: test matrix SGF; for SIF: test matrix SIF; for AB: test matrix acetate buffer (AB); for In Vitro Binding (% Drug Recovered) Acetate Buffer (pH 4.5) / In Vitro Binding (% Drug Recovered) SGF (pH 3) / In Vitro Binding (% Drug Recovered) SIF (pH 5.9): patiromer 25.2 g/L, 3 h, 37°C, geometric mean of 12 replicates; for Binding categories (level of in vitro interaction with patiromer): across SGF, AB and SIF test matrices; for In Vitro Binding (% Drug Recovered) SGF (pH 3): simulated gastric fluid, final pH 3.0; for In Vitro Binding (% Drug Recovered) SIF (pH 5.9): simulated intestinal fluid, final pH 5.9; for In vitro patiromer binding category: strong, weak or non-binding.

The conditions of data set [2]: test drug given together with patiromer, healthy volunteers; a drug listed in the table cell = AUC reduced; cited from earlier work.
Data set [3] in a line: Dose-response in vitro patiromer binding across a range of test drug concentrations. Particulars: across a clinically relevant dose range.
A short description of data set [4]: logP determination by titration in octanol/water. To be noted: octanol/water.
The nature of data set [5]: pKa determination by titration in aqueous solution (UV or pH monitored). To be noted: average of three determinations; for pKa: aqueous solution.
The nature of data set [6]: logD determination (liquid-liquid distribution chromatography, octanol-coated column). To be noted: octanol-coated column with octanol-saturated mobile phase.

For the compound `CN(C)C(=N)N=C(N)N` [Metformin HCl], in data set [1], the SGF is given as 48.9, the SIF turned out to be 80.2, the AB is recorded as 81.8 and the “In Vitro Binding (% Drug Recovered) Acetate Buffer (pH 4.5)” value amounted to 81.8%. For the same compound, in data set [1], the “Binding categories (level of in vitro interaction with patiromer)” value (“Binding categories” for short) is on record as “Weak binder (30–55% bound in one test matrix)”, the “In Vitro Binding (% Drug Recovered) SGF (pH 3)” value is 48.9%, the “In Vitro Binding (% Drug Recovered) SIF (pH 5.9)” value is 80.2% and the “In vitro patiromer binding category” value was “weak binder”. For the same compound, the “AUC reduced when co-administration (lower bound of the 90% CI <80%)” value in data set [2] is reported as “moderate reduction in AUC; also recorded: Metformin, 1000 mg”.

As to `C=C[C@H]1C[N@@]2CC[C@H]1C[C@@H]2[C@@H](O)c1ccnc2ccc(OC)cc12` [Quinidine], in data set [1], the SGF came to 12.6, the SIF is on record as 24.3, the “In Vitro Binding (% Drug Recovered) SGF (pH 3)” value was 12.6% and the “In Vitro Binding (% Drug Recovered) SIF (pH 5.9)” value was 24.3%. The “In vitro patiromer binding category” value in data set [1] is “strong binders”. The “Concentration dependence of in vitro binding to patiromer” value in data set [3] is recorded as “did not show strong concentration dependence”.

Take `COc1cc(Cc2cnc(N)nc2N)cc(OC)c1OC` [Trimethoprim]: in data set [1], the SGF is recorded as 36.3, the SIF is listed as 28.4, the AB came to 55.3 and the “In Vitro Binding (% Drug Recovered) Acetate Buffer (pH 4.5)” value is reported as 55.3%. Besides, in data set [1], the “In Vitro Binding (% Drug Recovered) SGF (pH 3)” value is reported as 36.3%, the “In Vitro Binding (% Drug Recovered) SIF (pH 5.9)” value is reported as 28.4% and the “In vitro patiromer binding category” value was “strong binders”. Moreover, the “Concentration dependence of in vitro binding to patiromer” value in data set [3] is listed as “did not show strong concentration dependence”.

For the compound `C[C@@H](NCCCc1cccc(C(F)(F)F)c1)c1cccc2ccccc12` [Cinacalcet HCl], in data set [1], the SGF was 13.4, the SIF was found to be 18.3, the AB is 19.3 and the “In Vitro Binding (% Drug Recovered) Acetate Buffer (pH 4.5)” value was determined as 19.3%. In data set [1], the “In Vitro Binding (% Drug Recovered) SGF (pH 3)” value was 13.4%, the “In Vitro Binding (% Drug Recovered) SIF (pH 5.9)” value is given as 18.3% and the “In vitro patiromer binding category” value is on record as “Strong patiromer binding”. For the same compound, the logP in data set [4] stood at 5.58. The compound also came in with a pKa in data set [5] (pKa (B = base), basic group) of 8.85. The compound further had a chromatographic logD in data set [6] (pH 3) of 2.41. In addition, the chromatographic logD in data set [6] (pH 4.5) came out at 2.44. In data set [6] (pH 5.9), the chromatographic logD amounted to 2.83.

For the compound `N[C@@H](Cc1cc(I)c(Oc2cc(I)c(O)c(I)c2)c(I)c1)C(=O)O` [Levothyroxine sodium], the “Behaviour of drug in the presence of patiromer and its calcium counter-ion” value in data set [1] (in vitro binding assay conditions) was “precipitated in the presence of patiromer and its calcium counter-ion”. The “AUC reduced when co-administration (lower bound of the 90% CI <80%)” value in data set [2] is “Ciprofloxacin, 500 mg Levothyroxine, 0.6 mg”. Moreover, the logP in data set [4] came to 3.44. The compound further had a pKa in data set [5] (pKa (B = base), basic group) of 8.73. For the same compound, the chromatographic logD in data set [6] (pH 3) was determined as 3.44; in data set [6] (pH 4.5) it was 3.44; in data set [6] (pH 5.9), 3.37.

`CC1(C)S[C@@H]2[C@H](NC(=O)[C@H](N)c3ccc(O)cc3)C(=O)N2[C@H]1C(=O)O` [Amoxicillin]: in data set [1], the SIF was found to be 99.4, the AB amounted to 99.2, the “In Vitro Binding (% Drug Recovered) Acetate Buffer (pH 4.5)” value was found to be 99.2% and the “Binding categories” value was “No binding (<30% drug bound in any test matrix)”. For the same compound, in data set [1], the “In Vitro Binding (% Drug Recovered) SIF (pH 5.9)” value is on record as 99.4%. The logP in data set [4] is -0.02. Moreover, the “pKa (A = acid)” value in data set [5] (acidic group) came out at 2.60. The compound also returned a pKa in data set [5] (pKa (A = acid), acidic group) of 9.59. Also, the pKa in data set [5] (pKa (B = base), basic group) was 7.35. This compound yielded a chromatographic logD in data set [6] (pH 3) of 1.65. The compound further came in with a chromatographic logD in data set [6] (pH 4.5) of 0.46. In addition, the chromatographic logD in data set [6] (pH 5.9) worked out at 0.

In the case of `NCCCC[C@H](N[C@@H](CCc1ccccc1)C(=O)O)C(=O)N1CCC[C@H]1C(=O)O` [Lisinopril], in data set [1], the SGF is 77.9, the SIF came out at 98.5, the AB is 100.7 and the “In Vitro Binding (% Drug Recovered) Acetate Buffer (pH 4.5)” value is 100.7%. Moreover, in data set [1], the “Binding categories” value is “No binding (<30% drug bound in any test matrix)”, the “In Vitro Binding (% Drug Recovered) SGF (pH 3)” value was 77.9% and the “In Vitro Binding (% Drug Recovered) SIF (pH 5.9)” value is given as 98.5%. Besides, the logP in data set [4] was -0.51. In addition, in data set [5] (pKa (A = acid), acidic group), the pKa worked out at 1.63. In data set [5] (pKa (B = base), basic group), the pKa is 7.13. The chromatographic logD in data set [6] (pH 3) is -0.85. The same compound had a chromatographic logD in data set [6] (pH 4.5) of -0.52. This compound returned a chromatographic logD in data set [6] (pH 5.9) of -0.54.

As for `Cc1ncc(C[n+]2csc(CCO)c2C)c(N)n1` [Thiamin], in data set [1], the “In Vitro Binding (% Drug Recovered) Acetate Buffer (pH 4.5)” value is 50.7%, the “In Vitro Binding (% Drug Recovered) SGF (pH 3)” value is 28.8% and the “In Vitro Binding (% Drug Recovered) SIF (pH 5.9)” value is 42.9%. Besides, the logP in data set [4] is below -1.5. Also, the pKa in data set [5] (pKa (B = base), basic group) worked out at 4.88. Further, in data set [6] (pH 3), the chromatographic logD is below -1.5. In data set [6] (pH 4.5), this compound registered a chromatographic logD below -1.5. In data set [6] (pH 5.9), this compound had a chromatographic logD below -1.5.
